# From patent publication US12129246B1, “Hydroquinazoline derivatives for the treatment of a disease or disorder” (Novartis AG, priority 2023, dated 2024)
# Legend:
# human NPR1 = molecular target: T1, human NPR1 (Homo sapiens, UniProt P16066); test: Cellular cGMP production assay, human NPR1 expressing CHO-K1 cells (CisBio HTRF); format: cell-based; conditions: for AC50: cGMP production, 30 min at 37° C., 12-point dose-response from 30 μM; for Human NPR1 Amax (% of ANP): maximum cGMP production as percentage of the maximum cGMP produced with ANP
# T1 construct: host or cells: CHO-K1
# T1 sequence (P16066 33-1061): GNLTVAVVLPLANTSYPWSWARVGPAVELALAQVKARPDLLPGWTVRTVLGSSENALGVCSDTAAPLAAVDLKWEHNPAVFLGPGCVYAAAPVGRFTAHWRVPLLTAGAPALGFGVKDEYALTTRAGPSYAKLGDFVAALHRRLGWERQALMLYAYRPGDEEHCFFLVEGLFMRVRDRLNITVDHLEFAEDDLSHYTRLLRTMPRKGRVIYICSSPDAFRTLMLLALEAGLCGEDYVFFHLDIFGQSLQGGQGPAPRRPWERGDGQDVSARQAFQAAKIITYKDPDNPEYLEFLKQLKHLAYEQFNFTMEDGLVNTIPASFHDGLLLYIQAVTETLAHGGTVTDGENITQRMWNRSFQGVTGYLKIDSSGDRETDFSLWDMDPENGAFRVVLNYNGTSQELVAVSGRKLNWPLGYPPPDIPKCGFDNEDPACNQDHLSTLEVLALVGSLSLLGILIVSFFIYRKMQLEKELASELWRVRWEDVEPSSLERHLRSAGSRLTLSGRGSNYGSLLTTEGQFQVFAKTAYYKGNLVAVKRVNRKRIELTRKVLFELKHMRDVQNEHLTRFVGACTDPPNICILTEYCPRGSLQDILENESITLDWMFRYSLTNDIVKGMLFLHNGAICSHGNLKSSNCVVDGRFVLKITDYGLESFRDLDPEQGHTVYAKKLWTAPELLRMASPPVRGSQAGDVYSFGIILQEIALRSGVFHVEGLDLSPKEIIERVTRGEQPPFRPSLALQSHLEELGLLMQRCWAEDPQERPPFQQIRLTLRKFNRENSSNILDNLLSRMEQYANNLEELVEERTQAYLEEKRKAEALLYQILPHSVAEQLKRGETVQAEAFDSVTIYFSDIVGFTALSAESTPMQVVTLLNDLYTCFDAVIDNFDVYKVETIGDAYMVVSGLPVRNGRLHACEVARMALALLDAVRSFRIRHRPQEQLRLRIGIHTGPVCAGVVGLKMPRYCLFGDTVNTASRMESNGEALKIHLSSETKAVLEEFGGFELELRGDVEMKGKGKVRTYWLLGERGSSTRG
# In short: (§1)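 Cells receive IBMX (1 mM) assay buffer plus test compound over twelve threefold dilutions starting at 30 μM, and cGMP accumulates for 30 min at 37 °C. Lysates are then incubated one hour at room temperature with d2-labelled cGMP and cryptate-labelled antibody before time-resolved fluorescence reading.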
# monkey NPR1 = monkey NPR1 (Macaca fascicularis, UniProt A0A7N9DBT9); test: Cellular cGMP production assay, monkey NPR1 expressing CHO-K1 cells (CisBio HTRF); format: cell-based; conditions: monkey NPR1 CHO-K1 cells; for AC50: cGMP production, 30 min at 37° C., 12-point dose-response from 30 μM, read-out: Monkey NPR1 AC50; for Monkey NPR1 Amax (% of ANP): maximum cGMP production as percentage of the maximum cGMP produced with ANP
# monkey NPR1, sequence (A0A7N9DBT9 entry or part of it): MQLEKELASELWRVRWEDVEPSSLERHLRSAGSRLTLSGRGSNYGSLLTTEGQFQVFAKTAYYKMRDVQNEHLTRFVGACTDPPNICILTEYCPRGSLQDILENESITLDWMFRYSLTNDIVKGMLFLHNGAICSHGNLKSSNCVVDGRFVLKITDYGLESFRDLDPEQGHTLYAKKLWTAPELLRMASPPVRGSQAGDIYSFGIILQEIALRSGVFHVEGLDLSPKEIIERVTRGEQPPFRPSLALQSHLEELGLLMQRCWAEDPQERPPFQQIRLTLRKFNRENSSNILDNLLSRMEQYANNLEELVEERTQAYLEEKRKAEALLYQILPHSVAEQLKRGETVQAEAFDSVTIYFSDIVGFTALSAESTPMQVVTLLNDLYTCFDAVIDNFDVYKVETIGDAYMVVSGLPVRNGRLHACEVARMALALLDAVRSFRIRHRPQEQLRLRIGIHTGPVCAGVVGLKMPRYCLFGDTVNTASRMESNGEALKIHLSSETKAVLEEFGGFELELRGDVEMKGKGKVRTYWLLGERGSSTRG
# In short: as §1
smiles,measurement,setting,value
CC[C@@H](Nc1nc2c(c(N[C@@H](CN3CCCCC3)c3cnn(C)c3)n1)CN(c1cccc(F)c1)CC2)[C@H]1CC[C@H](C(=O)O)CC1 [Compound 55],AC50,human NPR1,194 nM
same,Human NPR1 Amax (% of ANP),human NPR1,92.712 % of ANP
same,AC50,monkey NPR1,142 nM
same,Monkey NPR1 Amax (% of ANP),monkey NPR1,93.391 % of ANP
"CC[C@@H](Nc1nc2c(c(N[C@@H](CN3C[C@H](C)C[C@H](C)C3)c3cnn(C)c3)n1)C[C@H](c1ccccc1)CC2)[C@H]1CC[C@H](C(=O)O)CC1 [Compound 61, (1R,4r)-4-((R)-1-(((R)-4-(((R)-2-((3S,5R)-3,5-dimethylpiperidin-1-yl)-1-(1-methyl-1H-pyrazol-4-yl)ethyl)amino)-6-phenyl-5,6,7,8-tetrahydroquinazolin-2-yl)amino)propyl)cyclohexane-1-carboxylic acid]",AC50,human NPR1,207 nM
same,Human NPR1 Amax (% of ANP),human NPR1,104.236 % of ANP
same,AC50,monkey NPR1,122 nM
same,Monkey NPR1 Amax (% of ANP),monkey NPR1,102.127 % of ANP
"CC[C@H]([C@H]1CC[C@H](C(=O)O)CC1)N(C)c1nc2c(c(N[C@@H](CN3CCCC(C)(F)C3)c3cnn(C)c3)n1)C[C@H](c1ccccc1)CC2 (stereo partly drawn) [Compound 144, (1R,4r)-4-((1R)-1-(((6R)-4-(((1R)-2-(3-fluoro-3-methylpiperidin-1-yl)-1-(1-methyl-1H-pyrazol-4-yl)ethyl)amino)-6-phenyl-5,6,7,8-tetrahydroquinazolin-2-yl)(methyl)amino)propyl)cyclohexane-1-carboxylic acid]",AC50,human NPR1,985 nM
same,Human NPR1 Amax (% of ANP),human NPR1,114.314 % of ANP
same,AC50,monkey NPR1,873 nM
same,Monkey NPR1 Amax (% of ANP),monkey NPR1,152.392 % of ANP
"CC[C@H]([C@H]1CC[C@H](C(=O)O)CC1)N(C)c1nc2c(c(N[C@@H](CN3CCC[C@H](O)C3)c3cnn(C)c3)n1)C[C@H](c1ccccc1)CC2 [Compound 129, (1R,4r)-4-((R)-1-(((R)-4-(((R)-2-((S)-3-hydroxypiperidin-1-yl)-1-(1-methyl-1H-pyrazol-4-yl)ethyl)amino)-6-phenyl-5,6,7,8-tetrahydroquinazolin-2-yl)(methyl)amino)propyl)cyclohexane-1-carboxylic acid]",AC50,human NPR1,646 nM
same,Human NPR1 Amax (% of ANP),human NPR1,93.751 % of ANP
same,AC50,monkey NPR1,362 nM
same,Monkey NPR1 Amax (% of ANP),monkey NPR1,91.227 % of ANP
"CC[C@@H](N(C)c1nc2c(c(N[C@@H](CN3CCC[C@H](C)C3)c3ccnn3C)n1)C[C@H](c1cccc(F)c1)CC2)C12CC(C(=O)O)(C1)C2 [Compound 155, 3-((R)-1-(((R)-6-(3-fluorophenyl)-4-(((S)-1-(1-methyl-1H-pyrazol-5-yl)-2-((S)-3-methylpiperidin-1-yl)ethyl)amino)-5,6,7,8-tetrahydroquinazolin-2-yl)(methyl)amino)propyl)bicyclo[1.1.1]pentane-1-carboxylic acid]",AC50,human NPR1,1290 nM
same,Human NPR1 Amax (% of ANP),human NPR1,97.313 % of ANP
same,AC50,monkey NPR1,648 nM
same,Monkey NPR1 Amax (% of ANP),monkey NPR1,95.840 % of ANP
"CC[C@H]([C@H]1CC[C@H](C(=O)O)CC1)N(C)c1nc2c(c(N[C@@H](CN3CCC[C@H](COC)C3)c3cnn(C)c3)n1)C[C@H](c1ccccc1)CC2 [Compound 83, (1R,4r)-4-((R)-1-(((R)-4-(((R)-2-((S)-3-(methoxymethyl)piperidin-1-yl)-1-(1-methyl-1H-pyrazol-4-yl)ethyl)amino)-6-phenyl-5,6,7,8-tetrahydroquinazolin-2-yl)(methyl)amino)propyl)cyclohexane-1-carboxylic acid]",AC50,human NPR1,282 nM
same,Human NPR1 Amax (% of ANP),human NPR1,98.117 % of ANP
same,AC50,monkey NPR1,173 nM
same,Monkey NPR1 Amax (% of ANP),monkey NPR1,98.205 % of ANP
"CC[C@H]([C@H]1CC[C@H](C(=O)O)CC1)N(C)c1nc2c(c(N[C@@H](CN3CCC(C)CC3)c3cnn(C)c3)n1)C[C@H](c1ccccc1)CC2 [Compound 145, (1R,4r)-4-((R)-1-(methyl((R)-4-(((R)-1-(1-methyl-1H-pyrazol-4-yl)-2-(4-methylpiperidin-1-yl)ethyl)amino)-6-phenyl-5,6,7,8-tetrahydroquinazolin-2-yl)amino)propyl)cyclohexane-1-carboxylic acid]",AC50,human NPR1,1050 nM
same,Human NPR1 Amax (% of ANP),human NPR1,97.636 % of ANP
same,AC50,monkey NPR1,900 nM
same,Monkey NPR1 Amax (% of ANP),monkey NPR1,103.150 % of ANP
